From ChEMBL document CHEMBL1158726, “Taxoids and abietanes from callus cultures of Taxus cuspidata” (2005)

Columns and labels:
Assay type in all cases: functional, A2780 ADR
[1] = Reversal of multidrug resistance in human 2780AD cells assessed as [3H]vincristine accumulation at 0.1 ug/mL after 2 hrs relative to control
[2] = Reversal of multidrug resistance in human 2780AD cells assessed as [3H]vincristine accumulation at 1 ug/mL after 2 hrs relative to control
[3] = Reversal of multidrug resistance in human 2780AD cells assessed as [3H]vincristine accumulation at 10 ug/mL after 2 hrs relative to control
[4] = Reversal of multidrug resistance in human 2780AD cells assessed as [3H]vincristine accumulation at 0.1 ug/mL after 2 hrs relative to verapamil
[5] = Reversal of multidrug resistance in human 2780AD cells assessed as [3H]vincristine accumulation at 1 ug/mL after 2 hrs relative to verapamil
[6] = Reversal of multidrug resistance in human 2780AD cells assessed as [3H]vincristine accumulation at 10 ug/mL after 2 hrs relative to verapamil

| Compound | Activity [1] | Activity [2] | Activity [3] | Activity [4] | Activity [5] | Activity [6] |
| --- | --- | --- | --- | --- | --- | --- |
| COc1ccc(CCN(C)CCCC(C#N)(c2ccc(OC)c(OC)c2)C(C)C)cc1OC (centres undefined) [VERAPAMIL] | 104% | 145% | 352% | – | – | – |
| C=C1[C@@H](OC(C)=O)CC[C@]2(C)[C@@H]1C[C@@H]1C[C@H](OC(C)=O)C(C)=C([C@@H](OC(C)=O)[C@@H]2OC(C)=O)C1(C)C [TAXUSIN] | 106% | 228% | 461% | 102% | 157% | 136% |
